Consider two compounds from patent US20190314198A1, “Topical Ocular Delivery Methods and Devices for Use in the Same” (Kedalion Therapeutics, Inc., priority 2018, published 2019).

Experiment [1] concerns patients diagnosed with primary open angle glaucoma. In words: Trial 2: intraocular pressure reduction (Goldmann applanation tonometry), AcuStream versus standard eye dropper. Format: in vivo, human. As to the method: Trial 2 compared the efficacy (dose volume equivalence) of 0.005% w/v latanoprost for intraocular pressure reduction when delivered via AcuStream™ (pre-trial calibration volume=9.2 μl) versus the standard eye dropper for topical drug delivery (approximate volume=30 μl).
Patients included in Trial 2 have previously been diagnosed with primary open angle glaucoma on the basis of intraocular pressure and visual field testing, fundus examination or optical coherence tomography (OCT) data and are currently on prostaglandin analog medical therapy. Patients with corneal abnormalities that would interfere with accurate IOP measurements with applanation tonometry, use of an oral or topical ophthalmic steroids within the past 14 days from screening date, any active ocular surface or anterior segment disease, or progressive field loss during the past year were excluded from the study. Thirteen men and five women participated in the trial. […]
After performing slit lamp examinations on each patient to verify eligibility and obtaining informed consent, intraocular pressure (IOP) was measured by a sole experienced examiner who was blind to the randomized conditions. […]
Latanoprost solution was administered by a sole ophthalmologist to both eyes of each patient, based on the pre-determined randomized condition.

The test system of a further experiment is eye of subjects. Briefly: Presbyopia: pupil diameter after self-administered pilocarpine micro-dose. Format: in vivo, human. As to the method:
A 10 μl micro-dose of a 1% pilocarpine solution was self-administered using an electromagnetic actuated fluid delivery device, e.g., as described above, by three subjects to their own eye. The age range of the subjects was 52 years to 68 years, and all subjects were male. The pilocarpine micro-dose was self-administered by the subjects.
Baseline, pre-dose values of pupil diameter and near visual acuity in both eyes prior to dosing was measured for all subjects, and then following the baseline measurements, the subjects were dosed in only one eye (the eye with the poorer visual acuity) with the micro-dose pilocarpine solution. Approximately 45 to 60 minutes after dosing, pupil diameter and near visual acuity were again tested. Near visual acuity was measured using a Snellen card at a distance of 40 cm. A tabulation of results is given below in Table A.

With `CC(C)OC(=O)CCC/C=C\C[C@@H]1[C@@H](CC[C@@H](O)CCc2ccccc2)[C@H](O)C[C@@H]1O` [latanoprost], the “difference in IOP reduction between AcuStream and standard dropper groups” value in experiment [1] (Wilcoxon Ranked Sum test, p=0.3447) is “no statistically significant differences”. In addition, the “post-instillation IOP of a single patient outlier (OD)” value in experiment [1] (control group (standard eye dropper), baseline IOP 30 mm Hg) is 17 mm Hg.
`CC[C@@H]1C(=O)OC[C@@H]1Cc1cncn1C` [pilocarpine]: the “mean reduction in pupil diameter” value in the experiment on eye of subjects (dosed eye, 10 μl micro-dose of 1% solution, all 3 subjects) was 0.70 mm. Besides, in the experiment on eye of subjects (non-dosed contralateral eye), the “miotic effect in the non-dosed eye” value is “no miotic effect”.
